# Data from publication PMC7403980, “Anti-Inflammatory Effects of the Novel PIM Kinase Inhibitor KMU-470 in RAW 264.7 Cells through the TLR4-NF-κB-NLRP3 Pathway” (International Journal of Molecular Sciences, 2020).
# How the values were obtained:
# Type in all cases: cell-based, murine
# [1] = test system: ERK; experiment: LPS-induced phosphorylation of ERK in RAW 264.7 cells (Western blot); details: KMU-470 1 μM 24 h pre-treatment, LPS 50 ng/mL
# Procedure: (§1) Figure 5 Effect of KMU-470 on LPS-induced phosphorylation of MAPKs/ IKKs/ NF-κB in RAW 264.7 cells. (A) Cells were pre-treated with 1μM of KMU-470 for 24 h and stimulated with LPS (50 ng/mL) at the indicated times. (C) Cells were pre-treated with 0.5 and 1μM of KMU-470 for 30 min prior to LPS treatment. Total proteins were isolated after 6 h exposure to LPS (50 ng/mL). The protein expression level of MAPKs, p-IKKα/β, and p-NF-κB were assessed using Western blot analyses. (B,D) The relative optical densities of MAPKs, p-IKKα/β, and p-NF-κB bands were analyzed by the Image-J program. *** p < 0.001.
# (§2) RAW 264.7 cells were pre-treated with KMU-470 (0.5–1 μM/mL) for 24 h and stimulated with LPS (50 ng/mL) for 6 h. After stimulation, total cells were harvested, washed with PBS buffer, and then the total protein was extracted with a RIPA buffer (0.1 mM sodium orthovanadate, 137 mM NaCl, 15 mM EGTA, 0.1% Triton X-100, 25 mM MOPS, 15 mM MgCl2, 100 μM phenylmethylsulfonyl fluoride, and 20 μM leupeptin, adjusted to pH 7.2). […] Immunoreactive proteins were detected using the ELC Western blot detection system kit (Millipore). Signal intensity was measured using the Chemi Image documentation system (Fusion Fx7, VILBER LOUTMAT). Protein expression levels were quantified using the Image J program.
# [2] = test system: iNOS protein; experiment: LPS-induced iNOS protein expression in RAW 264.7 cells (Western blot); details: KMU-470 0.5 and 1 μM 30 min, LPS 1 μg/mL 24 h
# Procedure: Figure 3 Inhibitory effect of KMU-470 on LPS-induced NO production and iNOS protein expression, and cell viability in RAW 264.7 cells. (A) The cells were pre-treated with KMU-470 at a concentration of 1 μM for 30 min and then treated with different concentrations of LPS for 24 h. Nitrite in the culture supernatant was collected and evaluated using Griess reagent. Absorbance was measured at 540 nm. *** p < 0.001, ** p < 0.01, * p < 0.05. (B) Cells are pre-treated with two different concentrations of KMU-470 (0.5 μM and 1 μM) for 30 min, followed by treatment with 1 μg/mL LPS for 24 h. β-actin was used as an internal control for Western blot analysis. (C) Image-J program was used to analyze the relative optical density of the iNOS band. (D) Cells were treated with various concentrations of KMU-470 for 24 h. […] (E) The cell proliferation rate was determined by cell count using a trypan blue exclusion assay. *p < 0.05 (F) Effect of KMU-470 on cell viability was measured by XTT assay. *** p < 0.001.
# (§3) RAW 264.7 cells were pre-treated with KMU-470 (0.5–1 μM/mL) for 24 h and stimulated with LPS (50 ng/mL) for 6 h. […] Immunoreactive proteins were detected using the ELC Western blot detection system kit (Millipore). Signal intensity was measured using the Chemi Image documentation system (Fusion Fx7, VILBER LOUTMAT). Protein expression levels were quantified using the Image J program.
# [3] = test system: MyD88; experiment: LPS-induced MyD88 protein expression in RAW 264.7 cells (Western blot); details: KMU-470 0.5 and 1 μM 30 min, LPS 6 h
# Procedure: Figure 4 Inhibitory effect of KMU-470 on LPS-induced TLR4 and MyD88 protein expression in RAW 264.7 cells. (A,B) Cells were pre-treated with 0.5 and 1 μM of KMU-470 for 30 min prior to LPS treatment. Then, total protein was isolated after 6 h exposure to LPS. The protein expression level of TLR4 and MyD88 were assessed using Western blot analysis. (C,D) The relative optical densities of TLR4 and MyD88 bands were analyzed by the Image-J program. *** p < 0.001.
# as §2, with “7.2). The cell culture media supernatants were precipitated using TCA (trichloroacetic acid, protocol by Luis Sanchez 2001). A BCA protein assay kit (Thermo Scientific, Wilmington, USA) was used for the determination of the protein concentration.” for “7.2).”
# [4] = test system: pro-IL-1β; experiment: LPS-induced pro-IL-1β protein expression in RAW 264.7 cells (Western blot); details: KMU-470 0.1, 0.5, 1 μM 30 min, LPS 50 ng/mL 6 h
# Procedure: Figure 2 Effect of PIM inhibition on lipopolysaccharide (LPS)-mediated inflammatory response in RAW 264.7 cells. (A) RAW 264.7 cells transfected with negative siRNA or PIM-1 siRNA for 72 h and then treated with LPS (50 ng/mL) for 6 h. Whole cell lysates were isolated and used to measure the protein expression levels of PIM-1, pro-IL-1β, p-Bad, and β-actin by Western blot analysis. […] Total RNA was isolated, and used to measure the mRNA expression levels of IL-1b and β-actin by RT-PCR analysis. *** p < 0.001, ** p < 0.01.
# Figure 6 Inhibitory effect of KMU-470 on LPS-induced up-regulation of pro-inflammatory cytokines and activation of NLRP3 inflammasome in RAW 264.7 cells. (A–C) Cells were treated with KMU-470 for 30 min and stimulated with LPS 50 ng/mL for 6 h. The levels of IL-1β, TNF-α, and IL-6 were determined using real time PCR. *** p < 0.001, *p < 0.05. (D) Cells were pre-treated with 0.1, 0.5, and 1 μM of KMU-470 for 30 min and treated with LPS 50 ng/mL for 6 h, respectively. […]
# as §3, with “program. […]” for “program.”
# [5] = test system: NF-κB; experiment: LPS-induced phosphorylation of NF-κB in RAW 264.7 cells (Western blot); details: KMU-470 0.5 and 1 μM 30 min, LPS 50 ng/mL 6 h
# Procedure: as §1, §2
# [6] = test system: NLRP3; experiment: LPS-induced NLRP3 protein expression in RAW 264.7 cells (Western blot); details: KMU-470 0.1, 0.5, 1 μM 30 min, LPS 50 ng/mL 6 h
# Procedure: (§4) Figure 6 Inhibitory effect of KMU-470 on LPS-induced up-regulation of pro-inflammatory cytokines and activation of NLRP3 inflammasome in RAW 264.7 cells. (A–C) Cells were treated with KMU-470 for 30 min and stimulated with LPS 50 ng/mL for 6 h. The levels of IL-1β, TNF-α, and IL-6 were determined using real time PCR. *** p < 0.001, *p < 0.05. (D) Cells were pre-treated with 0.1, 0.5, and 1 μM of KMU-470 for 30 min and treated with LPS 50 ng/mL for 6 h, respectively. Whole cell lysates were isolated and used to measure the protein expression levels of pro-IL-1β and β-actin by Western blot analysis. (E) Cells were pre-treated with 0.1, 0.5, and 1 μM of KMU-470 for 30 min and treated with LPS 50 ng/mL for 6 h, respectively. Whole cell lysates were isolated and used to measure the protein expression levels of […], ASC, pro-caspase-1, pro-IL-1β, and β-actin by Western blot analysis.
# as §3
# [7] = test system: pro-caspase-1; experiment: Pro-caspase-1 protein expression in LPS-treated RAW 264.7 cells (Western blot); details: KMU-470 0.1, 0.5, 1 μM 30 min, LPS 50 ng/mL 6 h
# Procedure: as §4, §3
compound,measurement,setting,value
"CN(C)CCNc1cncc(-c2ccc3c(c2)/C(=C/c2cnc[nH]2)C(=O)N3)n1 [KMU-470, (Z)-3-((1H-Imidazol-5-yl)methylene)-5-(6-((2-(dimethylamino)ethyl)amino)pyrazin-2-yl)indolin-2-one]",LPS-induced phosphorylation of ERK,[1],significantly inhibited
same,LPS-induced up-regulation of iNOS protein,[2],attenuated
same,Up-regulation of MyD88 protein by LPS,[3],suppressed
same,LPS-induced up-regulation of IL-1β protein,[4]; RAW 264.7 cells (Figure 6D),reduced
same,Expression of pro-IL-1β protein compared with LPS alone group,[4]; RAW 264.7 cells (Figure 6E),marked decrease
same,LPS-induced phosphorylation of NF-κB,[5],significantly reduced
same,Expression of NLRP3 protein compared with LPS alone group,[6],marked decrease
same,Pro-caspase-1 expression,[7],not changed
